In ChEMBL document CHEMBL4376809, “Discovery of a Potent and Selective Fragment-like Inhibitor of Methyllysine Reader Protein Spindlin 1 (SPIN1)” (J Med Chem, 2019):
Values belong to the compound of their own block, whether it stands above or below them. Activity calls are given as the source filed them. No cut-off for these calls is given here. Non-standard residues stand in square brackets, D forms with d. Residues, ends and D or L forms follow the SMILES beside them. *: point of attachment. Benzoyl(4-tBu) = CC(C)(C)c1ccc(C(=O)*)cc1; Lys(Et2) = CCN(CC)CCCC[C@H](N)C(=O)O

What was measured:
Spindlin-1 [1] = target: T1, Spindlin-1 (Homo sapiens, UniProt Q9Y657); experiment: biochemical
Spindlin-1 [2] = target: T1, Spindlin-1; experiment: biochemical; remark: listed apart in the source
[3] = target: Histone-lysine N-methyltransferase EHMT1/EHMT2 (Homo sapiens) (UniProt Q9H9B1+Q96KQ7); experiment: Inhibition of human G9a catalytic domain/GLP catalytic domain in presence of SAM assessed as dissociation constant by isothermal calorimetry assay; assay type: protein assay
Spindlin-1 [4] = target: T1, Spindlin-1
Spindlin-1 [5] = target: T1, Spindlin-1; remark: listed apart in the source
Spindlin-1 [6] = target: T1, Spindlin-1; remark: listed apart in the source
[7] = target: T2, Chromobox protein homolog 7 (Homo sapiens, UniProt O95931); experiment: Inhibition of CBX7 (unknown origin) assessed as dissociation constant by isothermal titration calorimetry
T2 sequence (O95931 whole entry): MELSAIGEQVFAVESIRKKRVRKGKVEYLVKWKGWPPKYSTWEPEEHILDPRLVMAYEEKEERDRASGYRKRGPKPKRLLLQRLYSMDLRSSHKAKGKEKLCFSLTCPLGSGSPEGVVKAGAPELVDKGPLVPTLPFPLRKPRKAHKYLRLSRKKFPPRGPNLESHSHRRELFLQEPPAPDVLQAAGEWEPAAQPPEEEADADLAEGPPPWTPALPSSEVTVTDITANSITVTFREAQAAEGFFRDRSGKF

[8] = target: T3, E3 SUMO-protein ligase CBX4 (Homo sapiens, UniProt O00257); experiment: Inhibition of CBX4 (unknown origin) assessed as dissociation constant by isothermal titration calorimetry
T3 sequence (O00257 whole entry): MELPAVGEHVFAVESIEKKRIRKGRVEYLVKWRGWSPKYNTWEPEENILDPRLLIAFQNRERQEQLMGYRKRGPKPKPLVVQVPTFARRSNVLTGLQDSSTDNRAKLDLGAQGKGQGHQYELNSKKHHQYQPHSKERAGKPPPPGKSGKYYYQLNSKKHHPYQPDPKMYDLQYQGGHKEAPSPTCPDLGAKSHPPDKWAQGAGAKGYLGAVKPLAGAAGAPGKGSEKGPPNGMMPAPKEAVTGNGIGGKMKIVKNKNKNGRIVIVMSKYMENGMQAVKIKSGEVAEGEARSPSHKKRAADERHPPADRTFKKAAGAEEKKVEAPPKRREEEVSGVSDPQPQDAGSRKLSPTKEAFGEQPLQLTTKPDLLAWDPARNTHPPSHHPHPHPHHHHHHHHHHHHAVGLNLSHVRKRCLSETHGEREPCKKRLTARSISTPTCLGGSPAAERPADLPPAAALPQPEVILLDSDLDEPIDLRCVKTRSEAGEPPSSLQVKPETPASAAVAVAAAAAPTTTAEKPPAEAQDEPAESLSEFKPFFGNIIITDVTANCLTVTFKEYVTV

Spindlin-3 = Spindlin-3 (Homo sapiens, UniProt Q5JUX0); experiment: Inhibition of recombinant human N-terminal His6-tagged SPIN3 (27 to 258 residues) expressed in Escherichia coli BL21 (DE3) cells assessed as dissociation constant by isothermal titration calorimetry
Spindlin-4 = target: T4, Spindlin-4 (Homo sapiens, UniProt Q56A73); experiment: Inhibition of recombinant human N-terminal His6-tagged SPIN4 (36 to 249 residues) expressed in Escherichia coli BL21 (DE3) cells assessed as dissociation constant by isothermal titration calorimetry
T4 sequence (Q56A73 whole entry): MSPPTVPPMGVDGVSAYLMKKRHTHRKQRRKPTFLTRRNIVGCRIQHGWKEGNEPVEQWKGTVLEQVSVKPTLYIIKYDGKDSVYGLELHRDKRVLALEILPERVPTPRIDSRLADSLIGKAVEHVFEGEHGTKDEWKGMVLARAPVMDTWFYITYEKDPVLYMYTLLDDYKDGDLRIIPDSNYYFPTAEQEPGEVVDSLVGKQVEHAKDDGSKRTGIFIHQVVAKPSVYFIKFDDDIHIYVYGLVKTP

HFF-1 = experiment: Cytotoxicity against human HFF1 cells assessed as reduction in cell viability up to 30 uM incubated for 6 days by resazurin dye based fluorescence assay; settings: hff-1, 144 h
HEK-293T = experiment: Cytotoxicity against human 293T cells assessed as reduction in cell viability up to 30 uM incubated for 6 days by resazurin dye based fluorescence assay; settings: 144 h
C2C12 = experiment: Cytotoxicity against mouse C2C12 cells assessed as reduction in cell viability up to 30 uM incubated for 6 days by resazurin dye based fluorescence assay; settings: c2c12, 144 h
Homo sapiens [9] = species on record: Homo sapiens; experiment: Binding affinity to JARID1 (unknown origin) assessed as induction of thermal shifts at 20 uM measured for 25 mins by SYPRO orange dye thermal shift assay
Homo sapiens [10] = species on record: Homo sapiens; experiment: Inhibition of human MLL3/ASH2L/RBBP5/WDR5/DPY30 pentameric complex up to 50 uM using Biot-H3 (1-25) as substrate and in presence of [3H]-SAM incubated for 1 hr by scintillation proximity assay
Spindlin-2B = Spindlin-2B (Homo sapiens, UniProt Q9BPZ2); experiment: Inhibition of recombinant human N-terminal His6-tagged SPIN2B (45 to 258 residues) expressed in Escherichia coli BL21 (DE3) cells assessed as dissociation constant by isothermal titration calorimetry
Homo sapiens [11] = species on record: Homo sapiens; experiment: Inhibition of human MLL1/RBBP5/WDR5 trimeric complex up to 50 uM using Biot-H3 (1-25) as substrate and in presence of [3H]-SAM incubated for 1 hr by scintillation proximity assay

T1 sequence (Q9Y657 whole entry): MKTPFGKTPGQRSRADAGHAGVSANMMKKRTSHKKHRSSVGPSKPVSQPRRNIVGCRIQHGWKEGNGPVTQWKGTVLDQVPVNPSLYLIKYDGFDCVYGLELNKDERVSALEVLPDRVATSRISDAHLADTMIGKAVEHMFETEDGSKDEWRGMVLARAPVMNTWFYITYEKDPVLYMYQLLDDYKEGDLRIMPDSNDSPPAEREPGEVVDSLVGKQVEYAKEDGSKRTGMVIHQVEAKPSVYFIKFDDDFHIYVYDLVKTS
Chain of Histone-lysine N-methyltransferase EHMT1/EHMT2 (Homo sapiens) (Q96KQ7 whole entry, looked up, the tested form may be a part): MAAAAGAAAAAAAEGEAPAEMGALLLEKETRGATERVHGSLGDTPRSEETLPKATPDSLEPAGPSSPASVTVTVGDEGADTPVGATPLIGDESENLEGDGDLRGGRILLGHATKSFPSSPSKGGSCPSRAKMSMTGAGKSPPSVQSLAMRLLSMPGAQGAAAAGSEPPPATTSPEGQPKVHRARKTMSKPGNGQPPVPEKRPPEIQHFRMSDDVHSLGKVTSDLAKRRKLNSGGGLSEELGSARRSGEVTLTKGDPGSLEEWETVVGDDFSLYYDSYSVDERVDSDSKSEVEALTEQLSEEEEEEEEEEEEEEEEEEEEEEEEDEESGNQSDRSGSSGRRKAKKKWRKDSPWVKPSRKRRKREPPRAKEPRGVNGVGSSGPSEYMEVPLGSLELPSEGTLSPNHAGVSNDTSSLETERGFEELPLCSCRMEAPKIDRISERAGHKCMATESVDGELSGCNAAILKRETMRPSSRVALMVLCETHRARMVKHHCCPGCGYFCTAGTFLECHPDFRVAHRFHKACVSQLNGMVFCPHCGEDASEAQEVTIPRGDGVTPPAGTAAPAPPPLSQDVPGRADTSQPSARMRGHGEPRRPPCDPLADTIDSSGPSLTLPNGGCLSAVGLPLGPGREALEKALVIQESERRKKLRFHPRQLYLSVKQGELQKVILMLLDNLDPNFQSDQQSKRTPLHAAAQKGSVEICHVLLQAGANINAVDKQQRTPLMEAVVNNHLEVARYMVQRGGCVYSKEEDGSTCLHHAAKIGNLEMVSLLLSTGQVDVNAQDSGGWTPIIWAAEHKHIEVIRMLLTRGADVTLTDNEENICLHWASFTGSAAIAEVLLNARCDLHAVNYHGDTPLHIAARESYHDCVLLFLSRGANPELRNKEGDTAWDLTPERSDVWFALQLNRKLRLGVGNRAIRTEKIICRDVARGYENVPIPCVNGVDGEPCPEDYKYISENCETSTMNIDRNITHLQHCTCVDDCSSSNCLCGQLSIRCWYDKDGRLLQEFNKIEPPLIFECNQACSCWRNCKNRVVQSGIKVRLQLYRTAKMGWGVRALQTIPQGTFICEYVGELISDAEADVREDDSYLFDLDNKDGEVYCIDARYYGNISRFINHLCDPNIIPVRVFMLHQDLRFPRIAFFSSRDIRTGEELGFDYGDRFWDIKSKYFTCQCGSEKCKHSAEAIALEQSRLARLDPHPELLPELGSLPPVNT
Chain of Histone-lysine N-methyltransferase EHMT1/EHMT2 (Homo sapiens) (Q9H9B1 whole entry, looked up, the tested form may be a part): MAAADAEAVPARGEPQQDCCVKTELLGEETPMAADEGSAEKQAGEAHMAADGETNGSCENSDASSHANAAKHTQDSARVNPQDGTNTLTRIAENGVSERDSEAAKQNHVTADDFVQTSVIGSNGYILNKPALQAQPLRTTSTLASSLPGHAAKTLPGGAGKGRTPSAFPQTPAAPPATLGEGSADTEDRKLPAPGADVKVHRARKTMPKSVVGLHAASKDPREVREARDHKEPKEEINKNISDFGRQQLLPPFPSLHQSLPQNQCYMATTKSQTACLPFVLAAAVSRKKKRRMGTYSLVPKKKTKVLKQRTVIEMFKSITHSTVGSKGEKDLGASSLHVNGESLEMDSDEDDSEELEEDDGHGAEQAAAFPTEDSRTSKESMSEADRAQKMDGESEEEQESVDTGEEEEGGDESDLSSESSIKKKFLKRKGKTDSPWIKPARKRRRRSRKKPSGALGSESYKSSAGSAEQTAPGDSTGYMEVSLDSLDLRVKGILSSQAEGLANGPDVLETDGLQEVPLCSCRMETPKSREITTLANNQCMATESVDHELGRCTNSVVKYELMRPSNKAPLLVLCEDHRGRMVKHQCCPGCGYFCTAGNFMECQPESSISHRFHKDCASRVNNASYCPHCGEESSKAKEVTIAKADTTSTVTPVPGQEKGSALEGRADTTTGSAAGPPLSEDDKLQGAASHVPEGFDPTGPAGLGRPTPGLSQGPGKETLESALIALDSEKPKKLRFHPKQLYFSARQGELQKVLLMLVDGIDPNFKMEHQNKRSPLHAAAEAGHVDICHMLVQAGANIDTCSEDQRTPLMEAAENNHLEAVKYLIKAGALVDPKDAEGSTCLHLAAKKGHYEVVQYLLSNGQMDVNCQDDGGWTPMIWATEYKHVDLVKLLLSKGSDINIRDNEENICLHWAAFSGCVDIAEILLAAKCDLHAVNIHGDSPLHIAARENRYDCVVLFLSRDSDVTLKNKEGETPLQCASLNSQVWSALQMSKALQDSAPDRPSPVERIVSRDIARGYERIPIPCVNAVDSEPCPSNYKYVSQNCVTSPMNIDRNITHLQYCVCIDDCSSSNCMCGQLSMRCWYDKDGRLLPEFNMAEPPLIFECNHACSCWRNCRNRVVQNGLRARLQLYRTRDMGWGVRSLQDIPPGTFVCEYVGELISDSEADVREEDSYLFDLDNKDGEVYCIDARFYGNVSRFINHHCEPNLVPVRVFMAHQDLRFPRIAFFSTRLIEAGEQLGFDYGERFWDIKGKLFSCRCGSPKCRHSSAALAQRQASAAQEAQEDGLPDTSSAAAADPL
Chain of Spindlin-2B (Q9BPZ2 whole entry, the tested form may be a part): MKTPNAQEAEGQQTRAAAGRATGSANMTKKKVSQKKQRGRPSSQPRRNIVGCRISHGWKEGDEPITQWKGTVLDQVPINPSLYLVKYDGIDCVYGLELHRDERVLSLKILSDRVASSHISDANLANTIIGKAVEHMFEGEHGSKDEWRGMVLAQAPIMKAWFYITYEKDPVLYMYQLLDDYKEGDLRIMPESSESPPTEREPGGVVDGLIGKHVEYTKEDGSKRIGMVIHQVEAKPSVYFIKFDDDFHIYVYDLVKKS
Chain of Spindlin-3 (Q5JUX0 whole entry, the tested form may be a part): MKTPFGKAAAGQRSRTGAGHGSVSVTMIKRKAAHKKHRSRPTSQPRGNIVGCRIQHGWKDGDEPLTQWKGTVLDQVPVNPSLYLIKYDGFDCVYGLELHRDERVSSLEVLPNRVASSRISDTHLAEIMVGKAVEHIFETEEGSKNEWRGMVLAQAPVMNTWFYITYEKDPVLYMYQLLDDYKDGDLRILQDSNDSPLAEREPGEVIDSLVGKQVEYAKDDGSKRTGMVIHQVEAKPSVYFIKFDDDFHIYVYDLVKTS

IC50 (Spindlin-1 [1]): 338 nM
IC50 (Spindlin-1 [2]): 741 nM
inhibition [3]: inactive
Kd (Spindlin-1 [4]; read-out: Kd): 390 nM
SMILES: COc1c(CN)cc(CN)cc1OCCCN1CCCC1

IC50 (Spindlin-1 [5]): Not Active
IC50 (Spindlin-1 [6]): Not Active
Kd (Spindlin-1 [4]): Not Active
SMILES: COc1c(CN)cc(C(N)=O)cc1OCCCN1Cc2ccccc2C1

Kd [7]: 97 nM
Kd [8]: 94 nM
SMILES: CCN(CC)CCCC[C@H](NC(=O)[C@H](CC(C)C)NC(=O)[C@H](C)NC(=O)[C@H](C)NC(=O)c1ccc(C(C)(C)C)cc1)C(=O)N[C@@H](CO)C(=O)OC ({Benzoyl(4-tBu)}-AAL[Lys(Et2)]S-OMe)

Kd (Spindlin-3): 170 to 1700 nM
Kd (Spindlin-4): 170 to 1700 nM
inhibition [3]: inactive
Activity (Homo sapiens [9]): inactive
inhibition (Homo sapiens [10]): inactive
Kd (Spindlin-2B): 170 to 1700 nM
inhibition (Homo sapiens [11]): inactive
SMILES: COc1c(CN)cc(CN)cc1OCCCN1Cc2ccccc2C1
Activity (HFF-1): Non-Toxic
Activity (HEK-293T): Non-Toxic
Activity (C2C12): Non-Toxic
